In US20180214428A1, “3-(1H-INDOL-2-YL)-1H-PYRAZOLO[3,4-B]PYRIDINES AND THERAPEUTIC USES THEREOF” (Samumed, LLC, priority 2015, published 2018):

System: Wnt activity (Sp5-Luc reporter gene, SW480 colon carcinoma cells)
Test: Screening assay for Wnt activity: Sp5-Luc reporter gene assay in SW480 cells
Format: cell-based, human
Details: Homo sapiens; for inhibition at 10 µM: given for EC50 of >10 μM, read-out: percent inhibition at 10 μM; for EC50: overnight incubation
Summary of the method: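 SW480 cells stably transduced with a luciferase reporter driven by an Sp5 promoter of eight TCF/LEF sites were plated at 4,000 cells/well in 1% FBS medium. They were exposed overnight at 37° C to a 10-point 1:3 dilution series from 10 μM (0.1% DMSO). Luminescence was normalized to DMSO for four-parameter EC50, or percent inhibition at 10 μM.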

| SMILES | inhibition at 10 µM [%] | EC50 [µM] |
| --- | --- | --- |
| Fc1cccc(-c2cccc3[nH]c(-c4n[nH]c5ncc(-c6ccncc6)cc45)cc23)c1 [Compound 15, 3-(4-(3-Fluorophenyl)-1H-indol-2-yl)-5-(pyridin-4-yl)-1H-pyrazolo[3,4-b]pyridine] | 26 | > 10 |
| O=C(Nc1cncc(-c2cnc3[nH]nc(-c4cc5ccccc5[nH]4)c3c2)c1)C1CCCCC1 [Compound 249, N-(5-(3-(1H-Indol-2-yl)-1H-pyrazolo[3,4-b]pyridin-5-yl)pyridin-3-yl) cyclohexanecarboxamide] | – | 2.27 |
| O=C(Nc1cncc(-c2cnc3[nH]nc(-c4cc5c(-c6cccc(F)c6)cccc5[nH]4)c3c2)c1)C1CCCCC1 [Compound 19, N-(5-(3-(4-(3-Fluorophenyl)-1H-indol-2-yl)-1H-pyrazolo[3,4-b]pyridin-5-yl)pyridin-3-yl)cyclohexanecarboxamide] | – | 1.48 |
| CN1CCN(c2cccc3[nH]c(-c4n[nH]c5ncc(-c6ccncc6)cc45)cc23)CC1 [Compound 218, 3-(4-(4-Methylpiperazin-1-yl)-1H-indol-2-yl)-5-(pyridin-4-yl)-1H-pyrazolo[3,4-b]pyridine] | 7.7 | > 10 |
| CS(=O)(=O)NCc1cc(F)cc(-c2cccc3[nH]c(-c4n[nH]c5ncc(-c6ccccn6)cc45)cc23)c1 [Compound 478, N-(3-Fluoro-5-(2-(5-(pyridin-2-yl)-1H-pyrazolo[3,4-b]pyridin-3-yl)-1H-indol-4-yl)benzyl)methanesulfonamide] | – | 3.88 |
| O=C(Nc1cncc(-c2cnc3[nH]nc(-c4cc5c(-c6ccc(F)cc6)cccc5[nH]4)c3c2)c1)c1ccccc1 [Compound 32, N-(5-(3-(4-(4-Fluorophenyl)-1H-indol-2-yl)-1H-pyrazolo[3,4-b]pyridin-5-yl)pyridin-3-yl)benzamide] | – | 2.83 |
| c1cc(-c2ccncc2)c2cc(-c3n[nH]c4ncc(-c5ccncc5)cc34)[nH]c2c1 [Compound 111, 5-(Pyridin-4-yl)-3-(4-(pyridin-4-yl)-1H-indol-2-yl)-1H-pyrazolo[3,4-b]pyridine] | 17.6 | > 10 |
| c1ccc(-c2cnc3[nH]nc(-c4cc5c(-c6ccncc6)cccc5[nH]4)c3c2)nc1 [Compound 120, 5-(Pyridin-2-yl)-3-(4-(pyridin-4-yl)-1H-indol-2-yl)-1H-pyrazolo[3,4-b]pyridine] | 16.1 | > 10 |
| Fc1ccccc1-c1cccc2[nH]c(-c3n[nH]c4ncc(C5CCNCC5)cc34)cc12 [Compound 539, 3-(4-(2-Fluorophenyl)-1H-indol-2-yl)-5-(piperidin-4-yl)-1H-pyrazolo[3,4-b]pyridine] | 47.2 | > 10 |
| Cc1ccncc1-c1cnc2[nH]nc(-c3cc4c(-c5ccc(F)cc5)cccc4[nH]3)c2c1 [Compound 27, 3-(4-(4-Fluorophenyl)-1H-indol-2-yl)-5-(4-methylpyridin-3-yl)-1H-pyrazolo[3,4-b]pyridine] | – | 3.53 |
